Legend:
[1] = target: T1, Poly [ADP-ribose] polymerase tankyrase-1 (Homo sapiens, UniProt O95271); test: Inhibition of human TNKS1 catalytic activity
T1 sequence (O95271 whole entry): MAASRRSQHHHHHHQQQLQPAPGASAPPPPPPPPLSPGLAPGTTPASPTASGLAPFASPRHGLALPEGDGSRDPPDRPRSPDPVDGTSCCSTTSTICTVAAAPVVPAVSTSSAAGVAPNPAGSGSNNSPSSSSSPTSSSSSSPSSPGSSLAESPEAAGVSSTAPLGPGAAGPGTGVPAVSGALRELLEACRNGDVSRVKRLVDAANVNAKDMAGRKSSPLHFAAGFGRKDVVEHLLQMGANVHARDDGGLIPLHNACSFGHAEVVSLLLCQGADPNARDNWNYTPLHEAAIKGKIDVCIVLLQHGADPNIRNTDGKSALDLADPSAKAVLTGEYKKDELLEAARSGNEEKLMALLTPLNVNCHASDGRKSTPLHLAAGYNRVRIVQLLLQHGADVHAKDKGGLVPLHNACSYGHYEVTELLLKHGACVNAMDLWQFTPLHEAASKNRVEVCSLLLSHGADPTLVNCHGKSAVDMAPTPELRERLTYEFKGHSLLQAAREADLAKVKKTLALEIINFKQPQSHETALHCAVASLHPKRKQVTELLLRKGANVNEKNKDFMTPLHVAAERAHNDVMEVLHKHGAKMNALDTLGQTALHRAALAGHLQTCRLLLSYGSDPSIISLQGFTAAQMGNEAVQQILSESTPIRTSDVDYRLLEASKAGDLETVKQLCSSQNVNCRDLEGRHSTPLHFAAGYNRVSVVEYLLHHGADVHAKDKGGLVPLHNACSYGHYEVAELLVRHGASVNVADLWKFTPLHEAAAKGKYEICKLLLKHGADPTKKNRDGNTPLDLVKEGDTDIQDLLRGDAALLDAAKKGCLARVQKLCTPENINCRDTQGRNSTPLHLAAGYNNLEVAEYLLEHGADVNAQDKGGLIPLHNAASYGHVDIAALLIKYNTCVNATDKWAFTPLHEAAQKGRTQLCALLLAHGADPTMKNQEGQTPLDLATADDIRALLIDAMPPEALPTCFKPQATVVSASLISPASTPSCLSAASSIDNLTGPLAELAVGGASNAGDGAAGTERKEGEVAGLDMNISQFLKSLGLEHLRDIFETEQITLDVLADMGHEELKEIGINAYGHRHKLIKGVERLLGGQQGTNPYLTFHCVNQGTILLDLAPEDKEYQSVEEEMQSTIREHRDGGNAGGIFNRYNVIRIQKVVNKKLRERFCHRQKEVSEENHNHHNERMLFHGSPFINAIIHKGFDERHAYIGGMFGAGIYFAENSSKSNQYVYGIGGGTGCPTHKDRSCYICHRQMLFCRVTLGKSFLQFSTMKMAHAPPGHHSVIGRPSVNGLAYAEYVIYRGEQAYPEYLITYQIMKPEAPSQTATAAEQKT

[2] = Antiproliferative activity against human FEK4 cells
[3] = tested on: HT-29; test: Antiproliferative activity against human HT-29 cells
[4] = target: Poly [ADP-ribose] polymerase 1 (Homo sapiens, UniProt P09874); test: Inhibition of human PARP1
Chain of Poly [ADP-ribose] polymerase 1 (P09874 whole entry): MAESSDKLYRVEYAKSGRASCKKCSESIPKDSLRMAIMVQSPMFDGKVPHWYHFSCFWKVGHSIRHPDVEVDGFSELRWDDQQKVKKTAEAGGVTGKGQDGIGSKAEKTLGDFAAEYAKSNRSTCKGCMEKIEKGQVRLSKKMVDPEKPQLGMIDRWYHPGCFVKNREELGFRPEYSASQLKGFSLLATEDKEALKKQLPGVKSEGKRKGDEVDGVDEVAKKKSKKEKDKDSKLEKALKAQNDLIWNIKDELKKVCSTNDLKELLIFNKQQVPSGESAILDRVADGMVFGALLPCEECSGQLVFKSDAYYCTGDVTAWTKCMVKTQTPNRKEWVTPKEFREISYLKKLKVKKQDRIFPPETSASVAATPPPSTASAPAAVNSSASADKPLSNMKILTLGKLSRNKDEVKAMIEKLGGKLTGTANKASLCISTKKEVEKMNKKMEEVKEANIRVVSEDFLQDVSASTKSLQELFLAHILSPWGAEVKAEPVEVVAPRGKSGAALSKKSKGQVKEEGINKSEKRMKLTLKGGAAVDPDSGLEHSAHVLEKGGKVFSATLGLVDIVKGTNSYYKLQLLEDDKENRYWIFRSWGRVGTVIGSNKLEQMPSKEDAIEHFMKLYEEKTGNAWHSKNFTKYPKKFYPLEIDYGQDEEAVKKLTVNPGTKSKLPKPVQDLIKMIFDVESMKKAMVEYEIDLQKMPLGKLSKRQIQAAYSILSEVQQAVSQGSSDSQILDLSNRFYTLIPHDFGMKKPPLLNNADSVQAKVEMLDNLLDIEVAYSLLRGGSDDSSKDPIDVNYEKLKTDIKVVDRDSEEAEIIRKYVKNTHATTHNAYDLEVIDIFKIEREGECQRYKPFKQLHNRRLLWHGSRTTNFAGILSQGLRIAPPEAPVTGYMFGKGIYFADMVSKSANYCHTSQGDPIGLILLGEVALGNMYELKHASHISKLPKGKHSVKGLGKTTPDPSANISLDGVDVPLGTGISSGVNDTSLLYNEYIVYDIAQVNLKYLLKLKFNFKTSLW

[5] = target: T2, Poly [ADP-ribose] polymerase tankyrase-2 (Homo sapiens, UniProt Q9H2K2); test: Inhibition of human TNKS2 catalytic activity
T2 sequence (Q9H2K2 whole entry): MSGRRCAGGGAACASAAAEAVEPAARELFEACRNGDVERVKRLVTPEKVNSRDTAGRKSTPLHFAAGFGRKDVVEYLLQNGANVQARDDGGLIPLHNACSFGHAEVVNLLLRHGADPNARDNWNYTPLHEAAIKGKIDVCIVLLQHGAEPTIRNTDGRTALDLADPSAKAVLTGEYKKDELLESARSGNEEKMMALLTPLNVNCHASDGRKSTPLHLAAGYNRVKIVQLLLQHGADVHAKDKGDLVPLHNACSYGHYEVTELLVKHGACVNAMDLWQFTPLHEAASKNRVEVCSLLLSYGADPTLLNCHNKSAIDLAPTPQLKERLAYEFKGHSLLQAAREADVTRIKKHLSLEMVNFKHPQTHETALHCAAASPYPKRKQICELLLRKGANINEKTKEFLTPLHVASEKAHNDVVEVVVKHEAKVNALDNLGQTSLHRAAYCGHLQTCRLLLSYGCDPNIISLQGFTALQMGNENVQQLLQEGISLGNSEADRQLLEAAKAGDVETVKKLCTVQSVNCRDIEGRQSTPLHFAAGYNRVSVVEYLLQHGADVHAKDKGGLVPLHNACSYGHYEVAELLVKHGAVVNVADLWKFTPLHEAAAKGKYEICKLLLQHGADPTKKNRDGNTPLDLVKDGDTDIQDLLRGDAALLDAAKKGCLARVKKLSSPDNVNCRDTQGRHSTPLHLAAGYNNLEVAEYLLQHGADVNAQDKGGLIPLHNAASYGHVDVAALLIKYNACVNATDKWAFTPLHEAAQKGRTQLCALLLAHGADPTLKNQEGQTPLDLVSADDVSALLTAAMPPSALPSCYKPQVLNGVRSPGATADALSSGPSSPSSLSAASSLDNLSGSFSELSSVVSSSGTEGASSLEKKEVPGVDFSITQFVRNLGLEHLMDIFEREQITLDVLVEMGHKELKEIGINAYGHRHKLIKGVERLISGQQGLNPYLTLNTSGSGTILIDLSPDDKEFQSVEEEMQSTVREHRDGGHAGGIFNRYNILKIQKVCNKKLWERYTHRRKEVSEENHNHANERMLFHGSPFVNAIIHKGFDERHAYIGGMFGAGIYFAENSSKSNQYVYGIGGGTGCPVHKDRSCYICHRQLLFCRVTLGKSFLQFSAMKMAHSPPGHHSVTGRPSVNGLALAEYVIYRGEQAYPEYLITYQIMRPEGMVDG

Structure (SMILES) | IC50 [1] | IC50 [2] | IC50 [3] | IC50 [4] | IC50 [5]
O=c1[nH]c(-c2ccccc2)cc2ncccc12 | 5 µM | > 500 µM | > 500 µM |  | 
O=c1[nH]c(-c2ccccc2)cc2ccncc12 | 1.3 µM | > 500 µM | > 500 µM |  | 
Cc1ccc(-c2cc3cnccc3c(=O)[nH]2)cc1 | 6.2 µM | > 500 µM | 157 µM |  | 
CN1CCCc2c1cc(-c1ccccc1)[nH]c2=O | 0.097 µM | > 500 µM | > 500 µM |  | 
COc1ccc(-c2cc3c(c(=O)[nH]2)CCCN3C)cc1 | 0.0011 µM | > 200 µM | > 200 µM |  | 
CN1CCCc2c1cc(-c1ccc(C(F)(F)F)cc1)[nH]c2=O | 0.0015 µM | > 200 µM | > 200 µM |  | 
CN1CCCc2c1cc(-c1ccc(Cl)cc1)[nH]c2=O | 0.021 µM | > 500 µM | 26 µM |  | 
CN1CCCc2c1cc(-c1ccc(Br)cc1)[nH]c2=O | 0.0061 µM | > 500 µM | 26 µM | 2 µM | 0.423 µM

Reference: ChEMBL document CHEMBL3588759, “Structure-based design, synthesis and evaluation in vitro of arylnaphthyridinones, arylpyridopyrimidinones and their tetrahydro derivatives as inhibitors of the tankyrases” (Bioorg Med Chem, 2015)
